Values quoted from earlier work in patent publication US12686875B2, “Small molecules for increasing precise genome editing efficiency” (Max-Planck-Gesellschaft zur Förderung der Wissenschaften …, priority 2018, dated 2026).

Tests used:
mouse ESCs = details: dsODN donors, from 17.7% without L755507 (Yu et al. 2015); cited from earlier work
[1] = tested on: precise genome editing (PGE); details: SCR7 and L755507 added together with RS-1; cited from earlier work
HEK293A cells = details: cited from earlier work
hiPSCs = details: cited from earlier work
human LIG4 = human LIG4 (Homo sapiens, UniProt P49917); details: Greco et al. 2016; cited from earlier work
rabbit embryos = details: cited from earlier work
mouse embryos = details: cited from earlier work
human stem cells = details: cited from earlier work
[2] = tested on: porcine fetal fibroblasts; details: ssODN donors (Wang et al. 2016); cited from earlier work
U2OS cells = details: dsODN donors, from 1.9% without RS-1; cited from earlier work

Sequence of human LIG4 (P49917 whole entry): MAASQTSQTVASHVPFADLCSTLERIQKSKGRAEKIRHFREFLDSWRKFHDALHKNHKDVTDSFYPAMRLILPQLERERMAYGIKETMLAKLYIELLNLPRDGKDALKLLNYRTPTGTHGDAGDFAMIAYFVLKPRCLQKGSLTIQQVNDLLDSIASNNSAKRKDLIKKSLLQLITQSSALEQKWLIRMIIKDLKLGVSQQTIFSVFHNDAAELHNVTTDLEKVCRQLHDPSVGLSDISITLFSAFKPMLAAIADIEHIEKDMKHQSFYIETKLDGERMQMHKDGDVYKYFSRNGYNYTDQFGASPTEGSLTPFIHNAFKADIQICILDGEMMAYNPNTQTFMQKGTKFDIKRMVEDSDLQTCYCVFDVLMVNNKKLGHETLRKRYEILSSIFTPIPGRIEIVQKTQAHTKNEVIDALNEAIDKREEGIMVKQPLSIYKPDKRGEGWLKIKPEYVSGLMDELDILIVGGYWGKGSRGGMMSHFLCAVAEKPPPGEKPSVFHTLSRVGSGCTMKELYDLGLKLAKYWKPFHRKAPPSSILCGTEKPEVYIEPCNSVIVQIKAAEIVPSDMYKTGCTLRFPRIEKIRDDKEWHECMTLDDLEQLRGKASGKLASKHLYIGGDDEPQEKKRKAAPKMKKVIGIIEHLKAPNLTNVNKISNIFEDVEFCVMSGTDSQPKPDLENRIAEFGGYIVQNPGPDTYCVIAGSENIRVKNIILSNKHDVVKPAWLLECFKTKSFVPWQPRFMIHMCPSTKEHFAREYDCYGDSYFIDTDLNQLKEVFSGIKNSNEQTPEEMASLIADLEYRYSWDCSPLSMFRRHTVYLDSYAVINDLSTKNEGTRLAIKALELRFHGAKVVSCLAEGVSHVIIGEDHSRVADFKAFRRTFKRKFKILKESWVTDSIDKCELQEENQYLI
Sequence of human LIG4 (Q13426 whole entry partner): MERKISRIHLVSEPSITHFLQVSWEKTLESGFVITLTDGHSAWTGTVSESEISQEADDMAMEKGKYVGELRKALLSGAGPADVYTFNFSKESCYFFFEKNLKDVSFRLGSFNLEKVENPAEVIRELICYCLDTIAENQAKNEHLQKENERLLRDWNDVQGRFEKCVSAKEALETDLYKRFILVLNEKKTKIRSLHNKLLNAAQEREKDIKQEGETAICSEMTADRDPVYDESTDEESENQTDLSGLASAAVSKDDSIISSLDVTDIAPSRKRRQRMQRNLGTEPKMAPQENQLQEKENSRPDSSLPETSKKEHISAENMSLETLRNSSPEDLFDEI

SMILES | PGE (mouse ESCs) [%] | effect on PGE when added together with RS-1, compared to RS-1 alone [1] | effect on PGE (HEK293A cells) | stimulation of PGE (hiPSCs; hiPSCs (Zhang et al. 2017)) | PGE (hiPSCs; hiPSCs, ssODN, from 0.35% without L755507 (Yu et al. 2015)) [%] | inhibitory properties on human LIG4 (human LIG4) | effect on PGE (rabbit embryos) | efficiency of PGE (mouse embryos; from 5% without SCR7 (Maruyama et al. 2015)) [%] | effect on PGE (mouse embryos; other researchers) | effect on PGE (human stem cells) | effect on PGE efficiency [2] | PGE (U2OS cells) [%] | PGE (rabbit embryos; dsODN donors, from 4.4% without RS-1) [%] | PGE (HEK293A cells; dsODN donors, from 3.5% without RS-1) [%] | increase of PGE (hiPSCs; hiPSCs, dsODN donors (Zhang et al., 2017))
CCCCCCNC(=O)Nc1ccc(S(=O)(=O)Nc2ccc(CCNC[C@H](O)COc3ccc(O)cc3)cc2)cc1 [L755507] | 33.3 | no additive effect | did not find significant stimulation | did not find significant stimulation | 3.13 | – | – | – | – | – | – | – | – | – | –
O=c1[nH]c(=S)[nH]c(N=Cc2ccccc2)c1N=Cc1ccccc1 [SCR7] | – | no additive effect | marginal but significant increase | – | – | neither selective nor potent inhibitors | no significant effect | 22.7 | no significant effect | no significant effect | – | – | – | – | –
O=C(Nc1ccc(Br)cc1)c1ccc(Br)c(S(=O)(=O)NCc2ccccc2)c1 [RS-1] | – | – | – | – | – | – | – | – | – | – | No effect | 2.4 | 26.1 | 21 | not
